According to paper PMC6053381, “Novel 2-phenyloxypyrimidine derivative induces apoptosis and autophagy via inhibiting PI3K pathway and activating MAPK/ERK signaling in hepatocellular carcinoma cells” (Scientific Reports, 2018):

Experiments:
BEL7404 = test: CellTiter-Glo luminescent cell viability assay; format: cell-based; settings: 120 h incubation, read-out: Anti-proliferative activity IC50 BEL7404
Text: (§1) The in vitro antitumor activity of all compounds was screened against six HCC cell lines by CellTiter-Glo luminescent cell viability assay as described earlier. […] After a comprehensive assessment of PDGFR inhibition, cellular activity against HCC cells as well as potential druggability, E5 was chosen to investigate its kinase profiling, antitumor activity and molecular mechanism in the following study. […]
(§2) authenticated by using short tandem repeat (STR) matching analysis. No mycoplasma contamination was detected.
(§3) CellTiter-Glo luminescent cell viability assay
(§4) For experiments hepatocellular carcinoma cells were seeded at 4000 cells per well in 96-well plates. After overnight incubation, solution of compounds in DMSO at various concentrations were added to the cells and further incubated for 120 h. Cell viability was measured with the CellTiter-Glo Luminescent Cell Viability Assay (Promega) according to the manufacturer’s instructions. Luminescence was measured using an EnVision Multilabel Plate Reader (Perkin-Elmer). The cytotoxicity of the compounds was expressed as the percent age of luminescence relative to that of untreated cells . The concentration of compound producing 50% of cell proliferation (IC50) was calculated by nonlinear regression analysis of the response-concentration (log) curve, using the Graph-Pad Prism program package (Graph Pad Software; San Diego, CA). Results are expressed as the means of two […] experiments

SMMC-7721 = test: CellTiter-Glo luminescent cell viability assay; format: cell-based; settings: 120 h incubation, read-out: Anti-proliferative activity IC50 SMMC-7721
Text: as §1, §2, §3, §4

MHCC97-L = test: CellTiter-Glo luminescent cell viability assay; format: cell-based; settings: 120 h incubation, read-out: Anti-proliferative activity IC50 MHCC97-L
Text: as §1, §2, §3, §4

Hep3B = test: CellTiter-Glo luminescent cell viability assay; format: cell-based; settings: 120 h incubation, read-out: Anti-proliferative activity IC50 Hep3B
Text: as §1, §2, §3, §4

QGY-7703 = test: CellTiter-Glo luminescent cell viability assay; format: cell-based; settings: 120 h incubation, read-out: Anti-proliferative activity IC50 QGY-7703
Text: as §1, §2, §3, §4

SNU368 = test: CellTiter-Glo luminescent cell viability assay; format: cell-based; settings: 120 h incubation, read-out: Anti-proliferative activity IC50 SNU368
Text: as §1, §2, §3, §4

PDGFRβ = PDGFRβ (Homo sapiens, UniProt P09619); test: PDGFR kinase assay, Caliper microfluidic mobility shift; format: biochemical; settings: compound at 1 µM; averages of two separate experiments
Description: (§5) In vitro inhibitory activities of all compounds at 1 μM against PDGFRα and PDGFRβ were evaluated using Caliper microfluidic mobility shift technology. […] At the same concentration, only E5 inhibited greater than 50% of PDGFRβ activity (Fig. 2B).
(§6) PDGFR kinase activity was measured using Caliper microfluidic mobility shift technology. Briefly, 2 μL compound solution (25 μM) in 25% DMSO per well were added into the 384 well microtiter plates. Then, 10 μL per well of enzyme solution (100 mM HEPES, 10 mM MgCl2, Brij35 (30%) 100 μL, 1 mM DTT, 20 ng enzyme) was added. After a brief centrifugation at 1,000 rpm, the kinase reactions were started by addition of 38 μL per well of peptide/ATP-solution (40 μM ATP, 6.5 μM peptide 5′-FAM-KKKKEEIYFFF-NH2, Tris-HCl buffer, pH 7.0) incubated at 30 °C for 60 min and stopped by the addition of 20 μL 35 mM EDTA per well. The electrophoretic separation of the phosphorylated and non-phosphorylated peptides was then carried out on LabChip EZ Reader II (Caliper Life Sciences). All other kinase reactions were carried out as previously reported using the Kinase-Glo Plus or ADP-Glo assay. Kinase inhibition rates were calculated per manufacturer’s instructions.

PDGFRα = PDGFRα (Homo sapiens, UniProt P16234); test: as above; format: biochemical; settings: compound at 1 µM; averages of two separate experiments
Description: as §5, §6

PDGFRα, sequence (P16234 24-1089): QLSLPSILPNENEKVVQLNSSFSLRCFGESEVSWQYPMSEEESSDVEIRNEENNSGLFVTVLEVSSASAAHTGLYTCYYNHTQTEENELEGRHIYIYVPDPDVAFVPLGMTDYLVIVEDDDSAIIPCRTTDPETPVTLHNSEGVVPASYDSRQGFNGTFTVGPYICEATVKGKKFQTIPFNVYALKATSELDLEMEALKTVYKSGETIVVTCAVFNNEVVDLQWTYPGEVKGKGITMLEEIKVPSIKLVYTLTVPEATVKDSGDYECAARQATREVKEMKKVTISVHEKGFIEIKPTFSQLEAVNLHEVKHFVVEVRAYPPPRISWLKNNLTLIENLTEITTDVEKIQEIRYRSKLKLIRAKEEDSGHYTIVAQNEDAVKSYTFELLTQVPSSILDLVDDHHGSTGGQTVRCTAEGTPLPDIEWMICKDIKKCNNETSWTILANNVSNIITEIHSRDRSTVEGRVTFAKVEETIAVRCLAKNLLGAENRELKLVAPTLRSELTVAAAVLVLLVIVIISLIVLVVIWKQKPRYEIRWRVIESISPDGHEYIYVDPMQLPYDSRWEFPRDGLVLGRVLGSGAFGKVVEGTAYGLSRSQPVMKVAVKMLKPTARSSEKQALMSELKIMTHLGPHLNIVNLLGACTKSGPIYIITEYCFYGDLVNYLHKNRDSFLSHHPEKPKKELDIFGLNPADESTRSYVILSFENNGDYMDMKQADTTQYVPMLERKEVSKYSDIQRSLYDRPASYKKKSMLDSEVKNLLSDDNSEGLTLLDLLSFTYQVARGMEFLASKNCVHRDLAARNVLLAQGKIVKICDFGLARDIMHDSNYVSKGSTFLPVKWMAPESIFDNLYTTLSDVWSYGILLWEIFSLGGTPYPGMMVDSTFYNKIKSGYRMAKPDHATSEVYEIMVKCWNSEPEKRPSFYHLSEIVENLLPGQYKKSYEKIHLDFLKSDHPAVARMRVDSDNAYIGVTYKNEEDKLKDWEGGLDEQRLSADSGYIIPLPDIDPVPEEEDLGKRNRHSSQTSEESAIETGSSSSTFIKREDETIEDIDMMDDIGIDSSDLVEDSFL
PDGFRβ, sequence (P09619 33-1106): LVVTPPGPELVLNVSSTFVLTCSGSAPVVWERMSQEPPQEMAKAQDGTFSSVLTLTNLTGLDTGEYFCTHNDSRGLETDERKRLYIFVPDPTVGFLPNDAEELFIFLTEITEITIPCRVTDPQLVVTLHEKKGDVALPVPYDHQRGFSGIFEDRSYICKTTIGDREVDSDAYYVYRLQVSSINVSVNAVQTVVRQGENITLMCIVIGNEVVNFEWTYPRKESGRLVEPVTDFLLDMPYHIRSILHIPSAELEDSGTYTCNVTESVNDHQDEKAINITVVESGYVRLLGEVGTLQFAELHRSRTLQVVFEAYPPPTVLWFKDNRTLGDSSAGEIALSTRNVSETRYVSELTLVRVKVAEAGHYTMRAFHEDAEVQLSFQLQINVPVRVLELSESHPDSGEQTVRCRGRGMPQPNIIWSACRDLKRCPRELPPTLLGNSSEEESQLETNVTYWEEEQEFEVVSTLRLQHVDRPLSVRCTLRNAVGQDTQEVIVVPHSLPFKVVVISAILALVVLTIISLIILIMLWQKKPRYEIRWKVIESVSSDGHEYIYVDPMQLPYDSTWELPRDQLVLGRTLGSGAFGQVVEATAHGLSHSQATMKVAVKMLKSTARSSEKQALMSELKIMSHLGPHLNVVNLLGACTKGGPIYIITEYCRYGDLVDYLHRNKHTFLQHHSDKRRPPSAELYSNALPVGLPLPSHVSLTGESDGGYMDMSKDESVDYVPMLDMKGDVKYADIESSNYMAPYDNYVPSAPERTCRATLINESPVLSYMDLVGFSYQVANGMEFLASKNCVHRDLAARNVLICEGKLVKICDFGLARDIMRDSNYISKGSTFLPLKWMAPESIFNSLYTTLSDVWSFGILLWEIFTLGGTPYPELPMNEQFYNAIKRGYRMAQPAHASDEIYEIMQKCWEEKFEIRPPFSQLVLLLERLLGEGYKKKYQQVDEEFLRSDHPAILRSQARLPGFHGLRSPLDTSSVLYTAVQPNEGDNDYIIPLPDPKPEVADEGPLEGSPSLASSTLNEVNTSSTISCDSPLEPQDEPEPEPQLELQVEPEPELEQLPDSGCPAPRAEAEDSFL

| Compound | IC50 (BEL7404) [µM] | IC50 (SMMC-7721) [µM] | IC50 (MHCC97-L) [µM] | IC50 (Hep3B) [µM] | IC50 (QGY-7703) [µM] | IC50 (SNU368) [µM] | Inhibition effect (%) PDGFRβ (PDGFRβ) [%] | Inhibition effect (%) PDGFRα (PDGFRα) [%] |
| --- | --- | --- | --- | --- | --- | --- | --- | --- |
| Cc1ccc(NC(=O)Cc2ccccc2)cc1Oc1nccc(-c2ccccc2)n1 [B2] | 14.4 | 11.7 | 16.9 | 13 | 20.6 | 24.8 | 17.63 | 21.09 |
| CC(=O)Nc1ccc(C)c(Oc2nccc(-c3cc4ccccc4n3C)n2)c1 [F1] | 37.1 | 34.5 | 48.4 | 31 | 195 | 29.3 | 2.32 | 6.37 |
| Cc1ccc(NC(=O)c2ccc(Cl)cc2)cc1Oc1nccc(-c2cccnc2)n1 [A6] | 9.5 | 12.3 | 16.2 | 10.7 | 21.9 | 24 | 35.96 | 47.73 |
| Cc1ccc(NC(=O)CO)cc1Oc1nccc(-c2cc3ccccc3o2)n1 [E8] | 2.8 | 2.5 | 13.6 | 3.8 | 3.3 | 6.3 | 14.62 | 26.16 |
| Cc1ccc(NC(=O)c2cccnc2)cc1Oc1nccc(-c2ccccc2)n1 [B11] | 21.6 | 20.2 | 53.5 | 44.2 | 81.1 | 18 | 5.08 | 32.00 |
| Cc1ccc(NC(=O)c2ccc([N+](=O)[O-])cc2)cc1Oc1nccc(-c2ccccc2)n1 [B8] | 9.9 | 7.5 | 14 | 9 | 14.4 | 12 | 37.71 | 26.17 |
| CCC(=O)Nc1ccc(C)c(Oc2nccc(-c3cc4ccccc4o3)n2)c1 [E2] | 8.2 | 0.2 | 5.5 | 74.6 | 0.4 | 13.2 | 10.10 | 19.06 |
| Cc1ccc(NC(=O)c2cccc(Cl)c2)cc1Oc1nccc(-c2cccnc2)n1 [A7] | 32.8 | 27.2 | 51.5 | 18.9 | 57.8 | 45.9 | 40.23 |  |
| Cc1ccc(NC(=O)c2ccoc2)cc1Oc1nccc(-c2cc3ccccc3o2)n1 [E4] | 5.2 | 0.4 |  | 15.8 |  | 11.4 | 7.35 | 27.18 |
| COc1ccc(C(=O)Nc2ccc(C)c(Oc3nccc(-c4ccccc4)n3)c2)cc1 [B5] | 7.9 | 8.4 | 9.8 | 9.2 | 14.9 | 15.8 | 19.39 | 1.81 |
| Cc1ccc(NC(=O)c2cccc([N+](=O)[O-])c2)cc1Oc1nccc(-c2cccnc2)n1 [A9] | 23.8 | 26.8 | 53.2 | 28.4 | 48.4 | 51.5 | 23.41 | 23.63 |
| Cc1ccc(NC(=O)c2cccc([N+](=O)[O-])c2)cc1Oc1nccc(-c2ccccc2)n1 [B9] | 12.9 | 13.8 | > 200 | 83.2 | 19.2 | 16.8 | 19.14 | 21.34 |
